The source of these data is US10913727B2, “Modulators of the integrated stress pathway” (Calico Life Sciences LLC, priority 2016, dated 2021).

Structures are written as SMILES.

This experiment relates to HEK293T cells carrying the ATF4 luciferase reporter. Nature of the experiment: ATF4-Luc assay, in vitro model of Vanishing Cell White Matter Disease (VWMD). Format: cell-based. The conditions noted are these: Homo sapiens, HEK-293T, 1 μg/mL tunicamycin, 7 hours, One Glo luminescence. In outline:
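Stable HEK293T line with human ATF4 5′-UTR–firefly luciferase reporter treated with 1 μg/mL tunicamycin plus 200 nM compound for 7 h. Luminescence read; EC50 derived.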
As for `O=C(COc1ccc2c(c1)OC(F)(F)O2)NC12CC(NC(=O)c3cnc(C4CC4)o3)(C1)C2` [Compound 717, 2-cyclopropyl-N-(3-{2-[(2,2-difluoro-2H-1,3-benzodioxol-5-yl)oxy]acetamido}bicyclo[1.1.1]pentan-1-yl)-1,3-oxazole-5-carboxamide], the EC50 (as a rule, the concentration at which the effect is half-maximal) lay in the range of 250 to 1000 nM. On to `Cc1cnc(C(=O)NC23CC(NC(=O)COc4ccc(Cl)c(Cl)c4)(C2)C3)cn1` [Compound 131, N-{3-[2-(3,4-dichlorophenoxy)acetamido]bicyclo[1.1.1]pentan-1-yl}-5-methylpyrazine-2-carboxamide], for which the EC50 is 50 to 250 nM. For the molecule `Cc1ncsc1C(=O)NC12CC(NC(=O)COc3ccc(Cl)c(F)c3)(C1)C2` [Compound 558, N-{3-[2-(4-chloro-3-fluorophenoxy)acetamido]bicyclo[1.1.1]pentan-1-yl}-4-methyl-1,3-thiazole-5-carboxamide], the EC50 fell in the range of 1000 to 2000 nM. As for `Cc1nc(C(=O)NC23CCC(NC(=O)COc4ccc(Cl)c(F)c4)(CC2)C(O)C3)ccc1F` (stereo not drawn) [Compound 917, N-{4-[2-(4-chloro-3-fluorophenoxy)acetamido]-3-hydroxybicyclo[2.2.2]octan-1-yl}-5-fluoro-6-methylpyridine-2-carboxamide], the EC50 is 50 to 250 nM. To `O=C(COc1ccc(C(F)(F)F)nc1)NC12CC(Nc3ccnc4cc(Cl)ccc34)(C1)C2` [Compound 385, N-{3-[(7-chloroquinolin-4-yl)amino]bicyclo[1.1.1]pentan-1-yl}-2-{[6-(trifluoromethyl)pyridin-3-yl]oxy}acetamide] belongs 250 to 1000 nM. Next, `O=C(COc1ccc(Cl)cc1)NC12CC(Nc3nnc(-c4ccc(Cl)cc4)o3)(C1)C2` [Compound 264, 2-(4-chlorophenoxy)-N-(3-{[5-(4-chlorophenyl)-1,3,4-oxadiazol-2-yl]amino}bicyclo[1.1.1]pentan-1-yl)acetamide]: 250 to 1000 nM. To `Cc1cnc(C(=O)NC23CCC(NC(=O)COc4ccc(Cl)c(Cl)c4)(CC2)[C@@H](O)C3)cn1` [Compound 735, N-{(3S)-4-[2-(3,4-dichlorophenoxy)acetamido]-3-hydroxybicyclo[2.2.2]octan-1-yl}-5-methylpyrazine-2-carboxamide] belongs under 50 nM; to `NC(=O)c1ccncc1C(=O)NC12CC(NC(=O)COc3ccc(Cl)c(F)c3)(C1)C2` [Compound 826, N^3-{3-[2-(4-chloro-3-fluorophenoxy)acetamido]bicyclo[1.1.1]pentan-1-yl}pyridine-3,4-dicarboxamide], 1000 to 2000 nM; to `CS(=O)(=O)c1ccccc1C(=O)NC12CC(NC(=O)COc3ccc(Cl)c(F)c3)(C1)C2` [Compound 827, N-{3-[2-(4-chloro-3-fluorophenoxy)acetamido]bicyclo[1.1.1]pentan-1-yl}-2-(methanesulfonyl)benzamide], over 2000 nM. On to `O=C(COc1ccc(Cl)c(F)c1)NC12CC(NC(=O)c3ccc(C(F)(F)F)nc3)(C1)C2` [Compound 203, N-{3-[2-(4-chloro-3-fluorophenoxy)acetamido]bicyclo[1.1.1]pentan-1-yl}-6-(trifluoromethyl)pyridine-3-carboxamide], for which the EC50 was in the range of 1000 to 2000 nM. Next, `O=C(COc1ccc(Cl)c(Cl)c1)NC12CC(NC(=O)c3cccnc3)(C1)C2` [Compound 456, N-{3-[2-(3,4-dichlorophenoxy)acetamido]bicyclo[1.1.1]pentan-1-yl}pyridine-3-carboxamide]: 50 to 250 nM; `CN(C)c1ccccc1C(=O)NC12CC(NC(=O)COc3ccc(Cl)c(F)c3)(C1)C2` [Compound 532, N-{3-[2-(4-chloro-3-fluorophenoxy)acetamido]bicyclo[1.1.1]pentan-1-yl}-2-(dimethylamino)benzamide]: over 2000 nM; `O=C(COc1ccc(F)c(F)c1)NC12CC(NC(=O)c3ccc(OC(F)(F)F)nc3)(C1)C2` [Compound 277, N-{3-[2-(3,4-difluorophenoxy)acetamido]bicyclo[1.1.1]pentan-1-yl}-6-(trifluoromethoxy)pyridine-3-carboxamide]: 1000 to 2000 nM. To `O=C(COc1ccc(Cl)c(F)c1)NC12CCC(NC(=O)c3cnc(C4CC4)cn3)(CC1)C[C@@H]2O` [Compound 653, N-{(3S)-4-[2-(4-chloro-3-fluorophenoxy)acetamido]-3-hydroxybicyclo[2.2.2]octan-1-yl}-5-cyclopropylpyrazine-2-carboxamide] belongs 250 to 1000 nM; to `O=C(COc1ccc(Cl)c(F)c1)NC12CC(NC(=O)c3coc(-c4ccc(Cl)c(F)c4)n3)(C1)C2` [Compound 108, N-{3-[2-(4-chloro-3-fluorophenoxy)acetamido]bicyclo[1.1.1]pentan-1-yl}-2-(4-chloro-3-fluorophenyl)-1,3-oxazole-4-carboxamide], under 50 nM; to `O=C(COc1ccc(Cl)c(F)c1)NC12CCC(NC(=O)c3ccccc3F)(CC1)[C@@H](O)C2` [Compound 483, N-{(2S)-4-[2-(4-chloro-3-fluorophenoxy)acetamido]-2-hydroxybicyclo[2.2.2]octan-1-yl}-2-fluorobenzamide], 50 to 250 nM. On to `O=C(COc1ccc(Cl)c(F)c1)NC12CC(NC(=O)c3cnc(O)cn3)(C1)C2` [Compound 184, N-{3-[2-(4-chloro-3-fluorophenoxy)acetamido]bicyclo[1.1.1]pentan-1-yl}-5-hydroxypyrazine-2-carboxamide], for which the EC50 is over 2000 nM. `O=C(COc1ccc(Cl)c(F)c1)NC12CC(NC(=O)c3ccc(C(F)F)cn3)(C1)C2` [Compound 233, N-{3-[2-(4-chloro-3-fluorophenoxy)acetamido]bicyclo[1.1.1]pentan-1-yl}-5-(difluoromethyl)pyridine-2-carboxamide]: the EC50 is under 50 nM.
